SMILES strings stand for the structures.

By IC50 is commonly meant the concentration needed to halve the response being measured. High values mean a need for much substance, low ones inhibition by little substance.

For the first test, the target named is T1, Low affinity immunoglobulin epsilon Fc receptor (Homo sapiens, UniProt P06734).
T1 sequence (P06734 whole entry): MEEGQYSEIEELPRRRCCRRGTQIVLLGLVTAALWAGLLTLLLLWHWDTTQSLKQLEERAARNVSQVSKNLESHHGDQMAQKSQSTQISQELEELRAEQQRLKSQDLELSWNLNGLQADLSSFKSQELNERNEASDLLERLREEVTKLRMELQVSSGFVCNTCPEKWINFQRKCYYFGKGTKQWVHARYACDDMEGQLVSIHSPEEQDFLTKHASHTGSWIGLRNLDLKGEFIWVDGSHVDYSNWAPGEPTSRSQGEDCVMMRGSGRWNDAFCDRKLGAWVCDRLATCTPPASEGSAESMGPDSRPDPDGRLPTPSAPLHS
Briefly: (§1) Tested for inhibition against CD23 (IgE receptor) proteolysis in membranes derived from RPM18866 cells ( a human B-cell line); value ranges from 5-10.
`O=C(C[C@H](C(=O)N[C@@H](Cc1ccccc1)C(=O)NCc1ccccc1)C1CCCCC1)NO` [(S)-N*1*-((S)-1-Benzylcarbamoyl-2-phenyl-ethyl)-2-cyclohexyl-N*4*-hydroxy-succinamide] yielded an IC50 of 5 µM.

Biological target in another test: not listed separately
Kind of test: Tested for inhibition against CD23 (IgE receptor) proteolysis in membranes derived from RPM18866 cells (a human B-cell line).
In turn, `O=C(CCC(=O)N[C@@H](Cc1ccccc1)C(=O)NCc1ccccc1)NO` [N-((S)-1-Benzylcarbamoyl-2-phenyl-ethyl)-N'-hydroxy-succinamide] registered an IC50 above 20 µM.

In the case of `C[C@H](CC(=O)NO)C(=O)N[C@@H](Cc1ccccc1)C(=O)NCc1ccccc1` [(R)-N*1*-((S)-1-Benzylcarbamoyl-2-phenyl-ethyl)-N*4*-hydroxy-2-methyl-succinamide], the IC50 was above 20 µM.

In turn, `NC(=O)CC[C@H](CC(=O)NO)C(=O)N[C@@H](Cc1ccccc1)C(=O)NCc1ccccc1` [(R)-3-((S)-1-Benzylcarbamoyl-2-phenyl-ethylcarbamoyl)-hexanedioic acid 6-amide 1-hydroxyamide] yielded an IC50 above 20 µM.

Regarding `O=C(C[C@@H](O)C(=O)N[C@@H](Cc1ccccc1)C(=O)NCc1ccccc1)NO` [(R)-N*1*-((S)-1-Benzylcarbamoyl-2-phenyl-ethyl)-2,N*4*-dihydroxy-succinamide], the IC50 is above 20 µM.

Take `O=C(C[C@@H](CCc1ccccc1)C(=O)N[C@@H](Cc1ccccc1)C(=O)NCc1ccccc1)NO` [(R)-N*1*-((S)-1-Benzylcarbamoyl-2-phenyl-ethyl)-N*4*-hydroxy-2-phenethyl-succinamide]: the IC50 was 5 µM. This counts as single-digit micromolar.

For the compound `O=C(C[C@H](C(=O)N[C@@H](Cc1ccccc1)C(=O)NCc1ccccc1)c1ccc(-c2ccccc2)cc1)NO` [(S)-N*1*-((S)-1-Benzylcarbamoyl-2-phenyl-ethyl)-2-biphenyl-4-yl-N*4*-hydroxy-succinamide], the IC50 is above 20 µM.

`CC(C)C[C@@H](CC(=O)NO)C(=O)N[C@@H](Cc1ccccc1)C(=O)NCc1ccccc1` [(S)-N*1*-((S)-1-Benzylcarbamoyl-2-phenyl-ethyl)-N*4*-hydroxy-2-isobutyl-succinamide]: the IC50 is above 20 µM.

`O=C(C[C@H](C(=O)N[C@@H](Cc1ccccc1)C(=O)NCc1ccccc1)c1ccccc1)NO` [(S)-N*1*-((S)-1-Benzylcarbamoyl-2-phenyl-ethyl)-N*4*-hydroxy-2-phenyl-succinamide] displayed an IC50 of 1.6 µM.

For `O=C(C[C@@H](CC1CCCCC1)C(=O)N[C@@H](Cc1ccccc1)C(=O)NCc1ccccc1)NO` [(R)-N*1*-((S)-1-Benzylcarbamoyl-2-phenyl-ethyl)-2-cyclohexylmethyl-N*4*-hydroxy-succinamide], the IC50 worked out at 3.7 µM. Against the preceding compound, the IC50 is about 2.3-fold higher.

In turn, `O=C(C[C@@H](CC1CCCC1)C(=O)N[C@@H](Cc1ccccc1)C(=O)NCc1ccccc1)NO` [(R)-N*1*-((S)-1-Benzylcarbamoyl-2-phenyl-ethyl)-2-cyclopentylmethyl-N*4*-hydroxy-succinamide] gave an IC50 of 0.2 µM.

The compound `O=C(C[C@H](C(=O)N[C@@H](Cc1ccccc1)C(=O)NCc1ccccc1)c1cccc2ccccc12)NO` [(S)-N*1*-((S)-1-Benzylcarbamoyl-2-phenyl-ethyl)-N*4*-hydroxy-2-naphthalen-1-yl-succinamide] registered an IC50 above 20 µM.

`CC(C)S[C@H](CC(=O)NO)C(=O)N[C@@H](Cc1ccccc1)C(=O)NCc1ccccc1` [(R)-N*1*-((S)-1-Benzylcarbamoyl-2-phenyl-ethyl)-N*4*-hydroxy-2-isopropylsulfanyl-succinamide] gave an IC50 of 8 µM.

For the compound `CN(C)C[C@H](CC(=O)NO)C(=O)N[C@@H](Cc1ccccc1)C(=O)NCc1ccccc1` [(S)-N*1*-((S)-1-Benzylcarbamoyl-2-phenyl-ethyl)-2-dimethylaminomethyl-N*4*-hydroxy-succinamide], the IC50 is above 20 µM.

For another test, the target named is T1, Low affinity immunoglobulin epsilon Fc receptor. Kind of test: ChEBML_41676.
Excerpt: as §1
The compound `CC(C)SC[C@H](CC(=O)NO)C(=O)N[C@@H](Cc1ccccc1)C(=O)NCc1ccccc1` [(R)-N*1*-((S)-1-Benzylcarbamoyl-2-phenyl-ethyl)-N*4*-hydroxy-2-isopropylsulfanylmethyl-succinamide] registered an IC50 of 8 µM. In other words, the single-digit micromolar range.

As to `O=C(C[C@@H](Cc1ccc2ccccc2c1)C(=O)N[C@@H](Cc1ccccc1)C(=O)NCc1ccccc1)NO` [(R)-N*1*-((S)-1-Benzylcarbamoyl-2-phenyl-ethyl)-N*4*-hydroxy-2-naphthalen-2-ylmethyl-succinamide], the half-inhibitory concentration (IC50) was determined as 1 µM. Against the preceding compound, the IC50 is about 8-fold lower.

The record behind these values is BindingDB's records for doi:10.1016/s0960-894x(97)10148-2 (Smithkline Beecham Pharmaceuticals, 1999).
